In PubChem BioAssay (NCI):
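In this assay, cells in 96-well plates receive the compound at five concentrations for 48 hours. Endpoints are linearly interpolated between the surrounding concentrations. GI50 marks 50% less growth. Definition used: TGI = concentration required for complete inhibition of growth.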

Tests used:
Experiment in all cases: inhibition of tumour cell growth, NCI panel, 48 h
[1] = test system: A498 renal
[2] = test system: SK-MEL-2 melanoma
[3] = test system: SK-OV-3 ovarian
[4] = test system: HL-60(TB) leukemia
[5] = test system: HCT-116 colon
[6] = test system: RPMI-8226 leukemia
[7] = test system: T-47D breast
[8] = test system: PC-3 prostate
[9] = test system: SK-MEL-28 melanoma
[10] = test system: HCC-2998 colon
[11] = test system: MDA-MB-231 breast
[12] = test system: NCI/ADR-RES ovarian
[13] = test system: UO-31 renal
[14] = test system: SR leukemia
[15] = test system: MDA-MB-435
[16] = test system: HS 578T breast
[17] = test system: OVCAR-4 ovarian
[18] = test system: 786-0 renal
[19] = test system: U251 CNS
[20] = test system: SF-539 CNS
[21] = test system: NCI-H522 lung
[22] = test system: SF-295 CNS
[23] = test system: NCI-H226 lung
[24] = test system: K-562 leukemia
[25] = test system: SF-268 CNS
[26] = test system: HOP-62 NSCLC
[27] = test system: MCF7 breast
[28] = test system: CCRF-CEM leukemia
[29] = test system: OVCAR-3 ovarian
[30] = test system: DU-145 prostate
[31] = test system: EKVX NSCLC
[32] = test system: MALME-3M melanoma
[33] = test system: HCT-15 colon
[34] = test system: COLO 205 colon
[35] = test system: SN12C renal
[36] = test system: KM12 colon
[37] = test system: NCI-H460 lung
[38] = test system: IGROV1 ovarian
[39] = test system: CAKI-1 renal
[40] = test system: SK-MEL-5 melanoma
[41] = test system: ACHN renal
[42] = test system: HOP-92 NSCLC
[43] = test system: MOLT-4 leukemia
[44] = test system: SNB-19 CNS
[45] = test system: UACC-62 melanoma
[46] = test system: M14 melanoma
[47] = test system: SNB-75 CNS
[48] = test system: TK-10 renal
[49] = test system: LOX IMVI melanoma
[50] = test system: OVCAR-8 ovarian
[51] = test system: A549 NSCLC
[52] = test system: UACC-257 melanoma
[53] = test system: RXF 393 renal
[54] = test system: SW-620 colon
[55] = test system: HT29 colon
[56] = test system: BT-549 breast
[57] = test system: NCI-H23 lung
[58] = test system: OVCAR-5 ovarian
[59] = test system: MDA-N

CC(C)c1ccc2c(c1)c(SC(C)(C)C)c(CC(C)(C)C(=O)O)n2Cc1ccc(Cl)cc1
GI50 [1]: 10.8 µM | TGI [1]: 23.3 µM | GI50 [2]: 7.5 µM | TGI [2]: 20.1 µM | GI50 [3]: 14.1 µM | TGI [3]: 29.8 µM | GI50 [4]: 8.5 µM | TGI [4]: 30.3 µM | GI50 [5]: 9.1 µM | TGI [5]: 25.6 µM | GI50 [6]: 5.17 µM | TGI [6]: 41.8 µM | GI50 [7]: 9.86 µM | TGI [7]: 27.3 µM | GI50 [8]: 8.18 µM | TGI [8]: 23.4 µM | GI50 [9]: 11.3 µM | TGI [9]: 25.1 µM | GI50 [10]: 7.71 µM | TGI [10]: 20.4 µM | GI50 [11]: 12.6 µM | TGI [11]: 27.3 µM | GI50 [12]: 10.1 µM | TGI [12]: 26.7 µM | GI50 [13]: 7.72 µM | TGI [13]: 20.7 µM | GI50 [14]: 10.6 µM | TGI [14]: 36.7 µM | GI50 [15]: 10.2 µM | TGI [15]: 26.1 µM | GI50 [16]: 11.4 µM | TGI [16]: 29.4 µM | GI50 [17]: 16.9 µM | TGI [17]: 49 µM | GI50 [18]: 11.1 µM | TGI [18]: 27.7 µM | GI50 [19]: 6.8 µM | TGI [19]: 19.4 µM | GI50 [20]: 9.05 µM | TGI [20]: 21.8 µM | GI50 [21]: 6.07 µM | TGI [21]: 18.1 µM | GI50 [22]: 6.69 µM | TGI [22]: 22.2 µM | GI50 [23]: 12.6 µM | TGI [23]: 30.8 µM | GI50 [24]: 7.48 µM | TGI [24]: 37.8 µM | GI50 [25]: 8.79 µM | TGI [25]: 23.5 µM | GI50 [26]: 12.4 µM | TGI [26]: 28.9 µM | GI50 [27]: 5.14 µM | TGI [27]: 19.4 µM | GI50 [28]: 4.27 µM | TGI [28]: 29.1 µM | GI50 [29]: 6.36 µM | TGI [29]: 19.8 µM | GI50 [30]: 6.76 µM | TGI [30]: 19 µM | GI50 [31]: 4.42 µM | TGI [31]: 13 µM | GI50 [32]: 17.6 µM | TGI [32]: 34 µM | GI50 [33]: 8.8 µM | TGI [33]: 23.4 µM | GI50 [34]: 8.46 µM | TGI [34]: 21.9 µM | GI50 [35]: 12.2 µM | TGI [35]: 25.3 µM | GI50 [36]: 10.2 µM | TGI [36]: 26.3 µM | GI50 [37]: 4.23 µM | TGI [37]: 16.2 µM | GI50 [38]: 10.5 µM | TGI [38]: 23.5 µM | GI50 [39]: 10.8 µM | TGI [39]: 25.8 µM | GI50 [40]: 9.53 µM | TGI [40]: 22.4 µM | GI50 [41]: 11.6 µM | TGI [41]: 24.3 µM | GI50 [42]: 7.49 µM | TGI [42]: 22.5 µM | GI50 [43]: 1.64 µM | TGI [43]: 26.3 µM | GI50 [44]: 8.45 µM | TGI [44]: 22.7 µM | GI50 [45]: 11.8 µM | TGI [45]: 24 µM | GI50 [46]: 16.3 µM | TGI [46]: 36.5 µM | GI50 [47]: 9.76 µM | TGI [47]: 22.3 µM | GI50 [48]: 15.2 µM | TGI [48]: 30.6 µM | GI50 [49]: 10.9 µM | TGI [49]: 24.7 µM | GI50 [50]: 6.81 µM | TGI [50]: 19.6 µM | GI50 [51]: 3.27 µM | TGI [51]: 14.1 µM | GI50 [52]: 11 µM | TGI [52]: 24.7 µM | GI50 [53]: 2.87 µM | TGI [53]: 12.4 µM | GI50 [54]: 12.4 µM | TGI [54]: 29.1 µM | GI50 [55]: 5.75 µM | TGI [55]: 16.9 µM | GI50 [56]: 9.79 µM | TGI [56]: 22.5 µM | GI50 [57]: 10.8 µM | TGI [57]: 28.1 µM | GI50 [58]: 14.9 µM | TGI [58]: 29.2 µM

COc1cccc(Nc2nc3c([nH]2)c(=O)n(C)c(=O)n3C)c1
TGI [3]: > 10 µM | TGI [4]: > 10 µM | TGI [6]: > 10 µM | TGI [7]: > 10 µM | TGI [8]: > 10 µM | TGI [9]: > 10 µM | TGI [10]: > 10 µM | TGI [11]: > 10 µM | TGI [14]: > 10 µM | TGI [15]: > 10 µM | TGI [17]: > 10 µM | TGI [18]: > 10 µM | TGI [22]: > 10 µM | TGI [24]: > 10 µM | TGI [25]: > 10 µM | TGI [26]: > 10 µM | TGI [27]: > 10 µM | TGI [28]: > 10 µM | TGI [30]: > 10 µM | TGI [31]: > 10 µM | TGI [32]: > 10 µM | TGI [33]: > 10 µM | TGI [34]: > 10 µM | TGI [35]: > 10 µM | TGI [36]: > 10 µM | TGI [38]: > 10 µM | TGI [39]: > 10 µM | TGI [40]: > 10 µM | TGI [42]: > 10 µM | TGI [59]: > 10 µM | TGI [43]: > 10 µM | TGI [45]: > 10 µM | TGI [46]: > 10 µM | TGI [47]: > 10 µM | TGI [48]: > 10 µM | TGI [49]: > 10 µM | TGI [50]: > 10 µM | TGI [51]: > 10 µM | TGI [52]: > 10 µM | TGI [53]: > 10 µM | TGI [54]: > 10 µM | TGI [55]: > 10 µM | TGI [57]: > 10 µM

O=C(/C(=N/Nc1cn[nH]c(=O)c1Cl)c1ccccc1)c1ccccc1
TGI [1]: 50.4 µM | TGI [2]: > 100 µM | TGI [3]: > 100 µM | TGI [4]: > 100 µM | TGI [5]: 99.1 µM | TGI [6]: 60.7 µM | TGI [7]: 62.7 µM | TGI [8]: > 100 µM | TGI [9]: > 100 µM | TGI [10]: 76.7 µM | TGI [11]: 87.3 µM | TGI [12]: 59.9 µM | TGI [13]: > 100 µM | TGI [15]: 32.6 µM | TGI [17]: > 100 µM | TGI [18]: 68.7 µM | TGI [19]: > 100 µM | TGI [20]: 71.1 µM | TGI [21]: 77.2 µM | TGI [22]: > 100 µM | TGI [23]: > 100 µM | TGI [24]: > 100 µM | TGI [26]: > 100 µM | TGI [27]: > 100 µM | TGI [28]: > 100 µM | TGI [29]: 56.2 µM | TGI [30]: 54.3 µM | TGI [31]: 83.1 µM | TGI [32]: > 100 µM | TGI [33]: 51.3 µM | TGI [34]: 49.4 µM | TGI [35]: > 100 µM | TGI [36]: 32.9 µM | TGI [38]: 75.1 µM | TGI [39]: 93.1 µM | TGI [40]: > 100 µM | TGI [41]: > 100 µM | TGI [42]: > 100 µM | TGI [59]: 32.8 µM | TGI [43]: 97.2 µM | TGI [44]: > 100 µM | TGI [45]: 53.5 µM | TGI [46]: > 100 µM | TGI [47]: 71.6 µM | TGI [48]: > 100 µM | TGI [49]: 66.9 µM | TGI [50]: > 100 µM | TGI [51]: > 100 µM | TGI [52]: 80.2 µM | TGI [53]: 47.3 µM | TGI [54]: > 100 µM | TGI [55]: 59.1 µM | TGI [57]: 66.6 µM

O=C1C2=C(Nc3cc([N+](=O)[O-])ccc3N2)OC1c1ccc(C2OC3=C(Nc4ccc([N+](=O)[O-])cc4N3)C2=O)cc1 (centres undefined)
GI50 [2]: 63.3 µM | GI50 [4]: 0.184 µM | TGI [4]: 1.09 µM | GI50 [5]: 79.9 µM | GI50 [6]: 53.6 µM | GI50 [7]: 48 µM | GI50 [9]: 41.8 µM | GI50 [14]: 19.4 µM | GI50 [15]: 22.1 µM | TGI [15]: 53.4 µM | GI50 [21]: 6.12 µM | GI50 [22]: 23.3 µM | TGI [22]: 77.3 µM | GI50 [24]: 19.1 µM | GI50 [25]: 64.9 µM | GI50 [27]: 53.3 µM | GI50 [29]: 37.5 µM | GI50 [34]: 19.7 µM | TGI [34]: 45.1 µM | GI50 [36]: 26.1 µM | GI50 [40]: 38.9 µM | GI50 [59]: 42.8 µM | GI50 [43]: 22 µM | GI50 [45]: 30.4 µM | GI50 [52]: 28 µM | TGI [52]: 96.8 µM | GI50 [55]: 98.9 µM
